In US6143739A, “Basic proline-amide derivatives of GE 2270 and GE 2270-like antibiotics” (Biosearch Italia S.p.A., priority 1995, dated 2000):

Experiments:
Experiment in all cases: MIC by microbroth dilution
Type in all cases: cell-based
[1] = system: Strept. pneumoniae L44; settings: 0.01% (w/v) BSA, 10^4 CFU/ml, read after 18-24 h, 37° C., Todd Hewitt broth
Experimental: BSA is added to the diluent to avoid possible adherence of the compounds of the invention to the plastic surface of the microtiter wells, as disclosed also by B. Goldstein et al., Antimicrobial Agents and Chemotherapy, 37 (1993), 741-745. Inocula were 10^4 CFU/ml, except for Propionibacterium acnes and Bacteroides fragilis (10^5 CFU/ml). MICs were read after 18-24 h, except for Haemophilus influenzae, P. acnes, B. fragilis (48 h). All microorganisms were incubated at 37° C.; H. influenzae in a 5% CO2 atmosphere, anaerobes in a N2 --CO2 --H2 (80:10:10) mixture; other organisms in air. The growth media are: Oxoid Iso-Sensitest broth for staphylococci and Enterococcus faecalis); Difco Todd Hewitt broth for streptococci; Difco brain heart infusion broth+1% Difco Supplement C for H. influenzae; Difco Wilkins-Chalgren broth for anaerobes.

[2] = system: Streptococcus pyogenes L49; settings: 0.01% (w/v) BSA, 10^4 CFU/ml, read after 18-24 h, 37° C., Todd Hewitt broth
Experimental: (§1) The minimal inhibitory concentration (MIC) has been determined by microbroth dilution methodology, in the presence of 0.01% (w/v) of bovine serum albumin (BSA). BSA is added to the diluent to avoid possible adherence of the compounds of the invention to the plastic surface of the microtiter wells, as disclosed also by B. Goldstein et al., Antimicrobial Agents and Chemotherapy, 37 (1993), 741-745.
(§2) Inocula were 10^4 CFU/ml, except for Propionibacterium acnes and Bacteroides fragilis (10^5 CFU/ml).
(§3) MICs were read after 18-24 h, except for Haemophilus influenzae, P. acnes, B. fragilis (48 h).
(§4) All microorganisms were incubated at 37° C.; H. influenzae in a 5% CO2 atmosphere, anaerobes in a N2 --CO2 --H2 (80:10:10) mixture; other organisms in air.
(§5) The growth media are: Oxoid Iso-Sensitest broth for staphylococci and Enterococcus faecalis); Difco Todd Hewitt broth for streptococci; Difco brain heart infusion broth+1% Difco Supplement C for H. influenzae; Difco Wilkins-Chalgren broth for anaerobes.

[3] = system: Strept. sanguis L1721; settings: 0.01% (w/v) BSA, 10^4 CFU/ml, read after 18-24 h, 37° C., Todd Hewitt broth
Experimental: as §1, §2, §3, §4, §5

[4] = system: Strept. agalactiae L310; settings: 0.01% (w/v) BSA, 10^4 CFU/ml, read after 18-24 h, 37° C., Todd Hewitt broth
Experimental: as §1, §2, §3, §4, §5

[5] = system: Staphylococcus aureus L165; settings: 0.01% (w/v) BSA, 10^4 CFU/ml, read after 18-24 h, 37° C., Iso-Sensitest broth
Experimental: as §1, §2, §3, §4, §5

Row | Structure (SMILES) | MIC of the compounds, Strept. pneumoniae L44 [1] [µg/mL] | MIC of the compounds, Streptococcus pyogenes L49 [2] [µg/mL] | MIC of the compounds, Strept. sanguis L1721 [3] [µg/mL] | MIC of the compounds, Strept. agalactiae L310 [4] [µg/mL] | MIC of the compounds, Staphylococcus aureus L165 [5] [µg/mL]
1 | CNC(=O)CC1NC(=O)c2csc(n2)-c2ccc(-c3nc(C4=NC(C(=O)N5CCCC5C(=O)NCCCN(C)C)CO4)cs3)nc2-c2csc(n2)-c2csc(n2)C(C(O)c2ccccc2)NC(=O)CNC(=O)c2nc(sc2COC)C(C(C)C)NC(=O)c2nc1sc2C (mixture of isomers) [Compound 4] | 0.25 | 4 | 0.5 | 4 | 0.06
2 | CNC(=O)CC1NC(=O)c2csc(n2)-c2ccc(-c3nc(C4=NC(C(=O)N5CCCC5C(=O)N(C)CCN5CCN(C)CC5)CO4)cs3)nc2-c2csc(n2)-c2csc(n2)C(C(O)c2ccccc2)NC(=O)CNC(=O)c2nc(sc2COC)C(C(C)C)NC(=O)c2nc1sc2C (mixture of isomers) [Compound 17] | 0.5 | 4 | 0.5 | 8 | 0.06
3 | CNC(=O)CC1NC(=O)c2csc(n2)-c2ccc(-c3nc(C4=NC(C(=O)N5CCCC5C(=O)N(C)CCN5CCN(CCO)CC5)CO4)cs3)nc2-c2csc(n2)-c2csc(n2)C(C(O)c2ccccc2)NC(=O)CNC(=O)c2nc(sc2COC)C(C(C)C)NC(=O)c2nc1sc2C (mixture of isomers) [Compound 18] | 0.5 | 8 | 2 | 8 | 0.06
4 | CCN(CCN(C)C)C(=O)C1CCCN1C(=O)C1COC(c2csc(-c3ccc4c(n3)-c3csc(n3)-c3csc(n3)C(C(O)c3ccccc3)NC(=O)CNC(=O)c3nc(sc3COC)C(C(C)C)NC(=O)c3nc(sc3C)C(CC(=O)NC)NC(=O)c3csc-4n3)n2)=N1 (mixture of isomers) [Compound 8] | 0.25 | 4 | 0.5 | 8 | 0.06
5 | CNC(=O)CC1NC(=O)c2csc(n2)-c2ccc(-c3nc(C4=NC(C(=O)N5CCCC5C(=O)NCCN(C)C)CO4)cs3)nc2-c2csc(n2)-c2csc(n2)C(C(O)c2ccccc2)NC(=O)CNC(=O)c2nc(sc2COC)C(C(C)C)NC(=O)c2nc1sc2C (mixture of isomers) [Compound 7] | 0.13 | 1 | 0.5 | 4 | 0.06
6 | CCN(CC)CCN(CC)C(=O)C1CCCN1C(=O)C1COC(c2csc(-c3ccc4c(n3)-c3csc(n3)-c3csc(n3)C(C(O)c3ccccc3)NC(=O)CNC(=O)c3nc(sc3COC)C(C(C)C)NC(=O)c3nc(sc3C)C(CC(=O)NC)NC(=O)c3csc-4n3)n2)=N1 (mixture of isomers) [Compound 9] | 0.5 | 8 | 2 | 8 | 0.06
7 | CNC(=O)CC1NC(=O)c2csc(n2)-c2ccc(-c3nc(C4=NC(C(=O)N5CCCC5C(=O)NCCN(C(C)C)C(C)C)CO4)cs3)nc2-c2csc(n2)-c2csc(n2)C(C(O)c2ccccc2)NC(=O)CNC(=O)c2nc(sc2COC)C(C(C)C)NC(=O)c2nc1sc2C (mixture of isomers) [Compound 11] | 0.25 | 4 | 0.5 | 4 | 0.06
8 | CNC(=O)CC1NC(=O)c2csc(n2)-c2ccc(-c3nc(C4=NC(C(=O)N5CCCC5C(=O)N5CCN(CCCN(C)C)CC5)CO4)cs3)nc2-c2csc(n2)-c2csc(n2)C(C(O)c2ccccc2)NC(=O)CNC(=O)c2nc(sc2COC)C(C(C)C)NC(=O)c2nc1sc2C (mixture of isomers) [Compound 16] | 0.5 | 4 | 1 | 8 | 0.13
9 | CNC(=O)CC1NC(=O)c2csc(n2)-c2ccc(-c3nc(C4=NC(C(=O)N5CCCC5C(=O)N5CCN(CCN6CCOCC6)CC5)CO4)cs3)nc2-c2csc(n2)-c2csc(n2)C(C(O)c2ccccc2)NC(=O)CNC(=O)c2nc(sc2COC)C(C(C)C)NC(=O)c2nc1sc2C (mixture of isomers) [Compound 19] | 0.25 | 0.5 | 2 | 16 | 0.06
10 | CNC(=O)CC1NC(=O)c2csc(n2)-c2ccc(-c3nc(C4=NC(C(=O)N5CCCC5C(=O)N(C)CCN(C)CCN(C)C)CO4)cs3)nc2-c2csc(n2)-c2csc(n2)C(C(O)c2ccccc2)NC(=O)CNC(=O)c2nc(sc2COC)C(C(C)C)NC(=O)c2nc1sc2C (mixture of isomers) [Compound 15] | 1 | 8 | 2 | 16 | 0.06
11 | CNC(=O)CC1NC(=O)c2csc(n2)-c2ccc(-c3nc(C4=NC(C(=O)N5CCCC5C(=O)N(C)CC(=O)N(C)CCN(C)C)CO4)cs3)nc2-c2csc(n2)-c2csc(n2)C(C(O)c2ccccc2)NC(=O)CNC(=O)c2nc(sc2COC)C(C(C)C)NC(=O)c2nc1sc2C (mixture of isomers) [Compound 13] | 0.5 | 4 | 1 | 8 | 0.13
12 | CNC(=O)CC1NC(=O)c2csc(n2)-c2ccc(-c3nc(C4=NC(C(=O)N5CCCC5C(=O)NC(C)C(=O)N(C)CCN(C)C)CO4)cs3)nc2-c2csc(n2)-c2csc(n2)C(C(O)c2ccccc2)NC(=O)CNC(=O)c2nc(sc2COC)C(C(C)C)NC(=O)c2nc1sc2C (mixture of isomers) [Compound 14] | 0.13 | 2 | 0.25 | 4 | 0.13
13 | CNC(=O)CC1NC(=O)c2csc(n2)-c2ccc(-c3nc(C4=NC(C(=O)N5CCCC5C(=O)N5CCCC5CN(C)CCN(C)C)CO4)cs3)nc2-c2csc(n2)-c2csc(n2)C(C(O)c2ccccc2)NC(=O)CNC(=O)c2nc(sc2COC)C(C(C)C)NC(=O)c2nc1sc2C (mixture of isomers) [Compound 20] | 0.5 | 4 | 1 | 8 | 0.13
